Test results as given in US9682079B2, “Composition for treatment of pathogens that are resistant to tetracyclines” (BIOVERSYS AG, priority 2013, dated 2017).

Key:
[1] = tested on: Antibiotic-resistant staphylococcal, enterococcal, enterobacterial or acinetobacter isolates; assay: Broth micro-dilution assay in clinical patient isolates, compound in combination with tetracyclines; assay type: cell-based; conditions: 4 μg/ml tetracyclines and 10 μg/ml compound; OD610 16 to 20 hours after inoculation, normalized to DMSO control (100%)
From the text: Microdilution Assay in Clinical Patient Isolates
Broth Micro-Dilution Assay in Cation-Adjusted Mueller-Hinton (CA-MHB)
The assay protocol is adapted from the Clinical and Laboratory Standards Institute (CLSI) standardized method for broth microdilution. This methodology was used to evaluate the susceptibility of pathogenic clinical isolates towards different antibiotics in combination with a compound of the invention.
Antibiotic-resistant staphylococcal, enterococcal, enterobacterial or acinetobacter isolates were scraped from fresh Orientation Agar plates, suspended in saline solution with the turbidity adjusted to OD610 of 0.1 (corresponds to 0.5 McFarland scale). Subsequently, the cultures were diluted 160× in CA-MHB medium and a volume of 80 μl was dispensed into each well of a 96 well microtiter plate. Plates were covered and incubated for 16 to 20 hours at 35° C. without shaking. Plates were then visually analyzed, scanned and subsequently the OD610 was determined. Average and standard deviations were calculated from at least two wells with the same condition. Values were normalized to the DMSO control (which is 100%).
(§1) Correlation of the synergistic effect of compounds of the invention with tetracyclines on bacterial growth inhibition (% growth relative to DMSO; 4 μg/ml tetracyclines and 10 μg/ml compounds of the invention) and TetR/tetO interaction (% association of TetR to tetO relative to DMSO). Bacterial growth was analysed 16 to 20 hours after inoculation according to CLSI guidelines. OD610 was determined with a Tecan Infinite F200 and normalized to the DMSO control. The interaction of TRIC compounds with the TetR protein and the effect on TetR-tetO operator DNA binding was analyzed with a FortéBio's Octet red and normalized to the DMSO control.

TetR/tetO interaction = assay: DNA/protein (tetO/TetR) interaction assay, FortéBio Octet Red; assay type: binding; conditions: % association of TetR to tetO; compound 10 μg/mL & tetracycline 10 ng/mL mix in running buffer; normalized to DMSO control
Description: Biacore Based DNA/Protein (tetO/TetR) Interaction Assay
The FortéBio technology (FortéBio, Inc., Menlo Park, Calif., USA) is a novel label-free methodology for analyzing macromolecular ligand/capture interactions. The Octet system can be used to measure real-time, label-free analysis of biomolecular interactions and provide information on affinity, kinetics and concentration. The instrument is designed to assay up to eight samples in parallel in 2 min from a standard 96-well micro-plate. The detection technology utilized in the Octet is based on Biolayer Interferometry (BLI). BLI relies on the reflective property of white light and is implemented in the Octet via the use of fiber optic-based biosensors. The biosensors are coated with molecules chosen to capture the targeted ligands. The measurements were performed on an Octet Red system equipped with streptavidin biosensor tips (SA). Tips were purchased from FortéBio.
Interaction Studies: FortéBio's Octet Red
Interaction analyses were conducted at 30° C. in running buffer (HBS-P+5 mmol/L MgSO4) unless stated otherwise. (HBS-P buffer: 10 mM Hepes (pH 7.4), 150 mM NaCl, 0.005% (v/v) polysorbate P20, and 5 mmol/L MgSO4; a 10×HBS-P buffer from GE Healthcare was used). Temperature control on the Octet was accomplished by holding the instrument at room temperature so that it could be heated to 30° C. Sensor tips were pre-wet for 10 min in running buffer immediately prior to use, and the micro plates used in the Octet were filled with 200 μl of sample or buffer per well and agitated at 600 rpm. For the experiments commercially available precoated streptavidine tips were used (SA).
Biotinylated oligos were loaded onto the FortéBio SA fibers in HBS-P buffer pH 7.4. Protein binding experiments were run with HBS-P buffer unless stated otherwise. After each run the tip was regenerated (maximum 4 times) with running buffer containing 0.3% w/v sodium dodecylsulfate (SDS).
as §1

SMILES	Growth (% rel. to DMSO) [1]	Association (% rel. to DMSO) (TetR/tetO interaction)
O=C(NCc1cc(O)ccc1O)c1cc(F)cc(F)c1 [Example 2]	34.40%	51.60%
O=C(NCc1cc(O)ccc1O)c1ccc(C(F)(F)F)cc1 [Example 9]	25.91%	16.22%
O=C(c1cc(O)ccc1O)N1CCN(c2ccccc2)CC1 [Example 4]	63.87%	–
O=C(NCc1cc(F)ccc1O)C1CCc2c(O)ccc(O)c2C1 (stereo not shown) [Example 31]	68.68%	20.42%
CC(C)(C)c1ccc(CNC(=O)C2CCc3c(O)ccc(O)c3C2)cc1 (stereo not shown) [Example 29]	23.58%	–
O=C(NCc1cc(O)ccc1O)c1cc(F)ccc1F [Example 8]	69.68%	42.57%
O=C(NCc1ccc(F)cc1F)C1CCc2c(O)ccc(O)c2C1 (stereo not shown) [Example 36]	33.52%	27.89%
O=C(NCc1cc(F)cc(F)c1)C1CCc2c(O)ccc(O)c2C1 (stereo not shown) [Example 23, N-[(3,5-difluorophenyl)methyl]-5,8-dihydroxy-tetralin-2-carboxamide]	8.15%	22.69%
CCCCC(=O)Nc1ccccc1Oc1ccc(Cl)cc1 [Example 15]	4.88%	85.19%
COc1ccc(OC)c2c1CCCC2C(=O)NCC(C)C (stereo not shown) [Example 20, N-isobutyl-5,8-dimethoxy-tetralin-1-carboxamide]	63.75%	97.40%
CC(C)CNC(=O)C1CCc2c(O)ccc(O)c2C1 (stereo not shown) [Example 19]	11.50%	54.02%
CC(C)C(=O)NCc1cccc(-c2ccccc2)c1O [Example 17]	8.11%	70.49%
O=C(NCc1cc(O)ccc1O)c1ccccc1 [Example 1, N-[(2,5-dihydroxyphenyl)methyl]benzamide]	55.20%	15.84%
CCCCC(=O)NCc1ccc(-c2ccccc2)cc1O [Example 12, N-[(2-hydroxy-4-phenyl-phenyl)-methyl]pentanamide]	5.76%	1.60%
O=C(NCc1cc(C(F)(F)F)cc(C(F)(F)F)c1)C1CCc2c(O)ccc(O)c2C1 (stereo not shown) [Example 25]	90.15%	11.76%
O=C(NCc1ccc(-c2ccccc2)cc1)C1CCc2c(O)ccc(O)c2C1 (stereo not shown) [Example 30]	15.00%	25.35%
CC(C)CNC(=O)C1CCc2c(O)c3c(c(O)c2C1)C(=O)C=CC3=O (stereo not shown) [Example 22]	61.29%	108.99%
CCC(=O)NCc1cc(OC)c(-c2ccccc2)cc1OC [Example 13]	4.74%	–
CN(Cc1ccccc1)C(=O)C1CCc2c(O)ccc(O)c2C1 (stereo not shown) [Example 26]	55.92%	43.52%

SMILES	Growth (% rel. to DMSO) [1]	Association (% rel. to DMSO) (TetR/tetO interaction)
COc1ccc(OC)c2c1CCC(C(=O)NCC(C)C)C2 (stereo not shown) [Example 18]	103.70%	13.64%
O=C(NCc1cc(O)ccc1O)c1cccc(F)c1 [Example 6]	60.43%	25.61%
O=C(NCc1cc(F)ccc1F)C1CCc2c(O)ccc(O)c2C1 (stereo not shown) [Example 35]	25.80%	30.61%
O=C(NCc1cc(O)ccc1O)c1cc(C(F)(F)F)cc(C(F)(F)F)c1 [Example 11]	26.14%	19.59%
O=C(NCc1cc(O)ccc1O)c1cc(C(F)(F)F)ccc1C(F)(F)F [Example 10]	47.14%	25.68%
O=C(NCC1CCCCC1)C1CCc2c(O)ccc(O)c2C1 (stereo not shown) [Example 34]	13.58%	21.09%
O=C(Nc1nnc(-c2ccc(O)cc2)s1)C1CCc2c(O)ccc(O)c2C1 (stereo not shown) [Example 28]	46.79%	36.62%
O=C(CCc1ccccc1)Nc1ccccc1Oc1ccc(Cl)cc1 [Example 16]	6.15%	2.52%
CC(C)CNC(=O)C1CCc2c(c(O)c3ccccc3c2O)C1 (stereo not shown) [Example 21]	25.77%	–
O=C(NCc1ccccc1)C1CCc2c(O)ccc(O)c2C1 (stereo not shown) [Example 24]	48.15%	54.12%
O=C(NCc1ccc(C(F)(F)F)cc1)C1CCc2c(O)ccc(O)c2C1 (stereo not shown) [Example 27]	58.69%	23.15%
O=C(Nc1ccccc1)C1CCc2c(O)ccc(O)c2C1 (stereo not shown) [Example 32]	58.27%	25.35%
O=C(NCCc1cc(O)ccc1O)c1ccccc1 [Example 3]	41.10%	63.20%
O=C(Nc1ccccc1Oc1ccc(Cl)cc1)C1CCc2c(O)ccc(O)c2C1 (stereo not shown) [Example 37]	10.42%	14.18%
O=C(NCc1cc(O)ccc1O)c1cc(F)ccc1O [Example 7]	56.50%	26.83%
O=C(NCCCc1ccccc1)C1CCc2c(O)ccc(O)c2C1 (stereo not shown) [Example 33]	16.62%	19.05%
O=C(NCc1cc(O)ccc1O)c1ccccc1F [Example 5]	56.57%	30.49%
CCC(=O)Nc1ccccc1Oc1ccc(Cl)cc1 [Example 14, N-[2-(4-chlorophenoxyl)phenyl]propanamide]	18.21%	10.26%
